Measured values taken from patent publication US11147272B2, “Pyridone compounds and agricultural and horticultural fungicides comprising the same as active ingredients” (MITSUI CHEMICALS AGRO, INC., priority 2017, dated 2021).

How the values were obtained:
[1] = test system: Magnaporthe grisea; assay: whole plant or invertebrate; format: in vivo; conditions: for Test A control value class: class of control value
[2] = test system: Alternaia brassicicola; assay: Test Example C: Alternaria sooty spot on cabbage; format: in vivo; conditions: for Test C control value class: class of control value
From the text: Seeds of a test plant (cabbage variety: Shikidori) were planted and cultivated until the cotyledons extended.
<Control Value> Control value=100{1−(n/3)}

[3] = test system: Puccinia recondita; assay: Test Example E: Brown rust on wheat; format: in vivo; conditions: for Test E control value class: class of control value
[4] = test system: Phytophthora infestans; assay: whole plant or invertebrate; format: in vivo; conditions: for Test F control value class: class of control value
[5] = test system: Botrytis cinerea; assay: Test Example B: Gray mold on tomato; conditions: for Test B control value class: class of control value
[6] = test system: Plasmopara viticola; assay: Test Example G: Downy mildew on vine; conditions: for Test G control value: 7 to 10 days after inoculation; for Test G control value class: Downy mildew on vine (Neomuscat), 2.5 ml/pot, assessed 7 to 10 days after inoculation
Method: Seeds of a test plant (grape variety: Neomuscat) were planted and cultivated until three to four first leaves appeared. In the test, the inventive compounds were dissolved into dimethyl sulfoxide-methanol mixture solution (volume ratio: 9/1), and the resultant solutions were diluted with well water to a concentration of 250 ppm to obtain the drug solutions. The drug solutions were sprayed to the test plant (2.5 ml/pot). After the drug solutions dried, a zoosporangia suspension (1-2×10^4 zoosporangia/ml) of Plasmopara viticola was inoculated to the plant by spraying. After the inoculation, the plant was kept in a mist chamber at room temperature of 20° C. for about 24 hours to promote the onset of disease. The degrees of disease development were investigated 7 to 10 days after the inoculation, and the effectiveness of the drug solutions was evaluated.
In Test Examples described above, the degrees of disease development were evaluated in increments of 0.05 from 0 (as no incidence of disease) to 3 (as the degree of disease development in an untreated plant group). Further, control values were calculated using the following equation based on the degree of disease development.
n=Degree of disease development in each treated group

[7] = test system: Colletotrichum orbiculare; assay: Test Example H: Anthracnose on cucumber; conditions: for Test H control value: 6 to 10 days after inoculation; for Test H control value class: Anthracnose on cucumber (Sagami Hanjiro), 2.5 ml/pot, assessed 6 to 10 days after inoculation
[8] = test system: Blumeria graminis f. sp. hordei; assay: Test Example D: Powdery mildew on barley; conditions: for Test D control value class: class of control value
[9] = Blast on rice, control value class
[10] = Alternaria sooty spot on cabbage, control value class
[11] = Brown rust on wheat, control value class
[12] = Late blight on tomato, control value class
[13] = Gray mold on tomato, control value class
[14] = Downy mildew on vine, 250 ppm spray
[15] = Anthracnose on cucumber, 250 ppm spray
[16] = Powdery mildew on barley, control value class
[17] = Alternaria sooty spot on cabbage
[18] = 250 ppm drug solution sprayed on test plant

Compound	Test A control value [1, 9]	Test C control value [2, 10]	Test E control value [3, 11]	Test F control value [4, 12]	Test B control value [5, 13]	Test G control value [6, 14]	Test H control value [7, 15]	Test D control value [8, 16]	Test A control value class ([1]; Blast on rice)	Test C control value class [2, 17]	Test E control value class ([3]; Brown rust on wheat)	Test F control value class ([4]; Late blight on tomato)	Test B control value class ([5]; Gray mold on tomato)	Test G control value class ([6]; 250 ppm spray)	Test H control value class ([7]; 250 ppm spray)	Test D control value class ([8]; Powdery mildew on barley)	further results
CCc1cc(Cl)c(=O)n(C)c1-c1ccc(OC)cc1Br [compound 357]	H (more than 50% control value)	L (50% or less control value)	H (more than 50% control value)	L (50% or less control value)	H (more than 50% control value)	L (50% or less control value)	H (more than 50% control value)	L (50% or less control value)	–	–	–	–	–	–	–	–	–
CCn1c(-c2c(F)cc(F)cc2F)c(C(Cl)C(C)(C)C)cc(Cl)c1=O (racemic) [compound 172]	–	–	–	–	–	–	–	–	H (more than 50% control value)	H (more than 50% control value)	H (more than 50% control value)	H (more than 50% control value)	H (more than 50% control value)	H (more than 50% control value)	H (more than 50% control value)	H (more than 50% control value)	–
CCc1cc(Cl)c(=O)n(C)c1-c1ccc(F)cc1Cl [compound 316]	L (50% or less control value)	H (more than 50% control value)	H (more than 50% control value)	H (more than 50% control value)	H (more than 50% control value)	H (more than 50% control value)	H (more than 50% control value)	L (50% or less control value)	–	–	–	–	–	–	–	–	–
CCn1c(-c2c(F)cc(F)cc2F)c(C(C)(O)C(C)(C)C)cc(Cl)c1=O (racemic) [compound 174]	–	–	–	–	–	–	–	–	H (more than 50% control value)	H (more than 50% control value)	H (more than 50% control value)	L (50% or less control value)	H (more than 50% control value)	L (50% or less control value)	L (50% or less control value)	H (more than 50% control value)	–
CCCc1ccc(=O)n(CCC)c1-c1c(F)cc(F)cc1F [compound 437]	–	–	–	–	–	–	–	–	–	–	–	–	–	–	–	–	Test A control value [1, 18]: L (50% or less control value); Test C control value [2, 18]: L (50% or less control value); Test E control value [3, 18]: L (50% or less control value); Test F control value [4, 18]: L (50% or less control value); Test B control value [5, 18]: L (50% or less control value); Test G control value ([6]; 250 ppm drug solution sprayed (2.5 ml/pot), grape Neomuscat): L (50% or less control value); Test H control value ([7]; 250 ppm drug solution sprayed (2.5 ml/pot), cucumber Sagami Hanjiro): H (more than 50% control value); Test D control value [8, 18]: H (more than 50% control value)
CCn1c(-c2c(F)cc(F)cc2F)c(C(O)C(C)(C)C)cc(Cl)c1=O (racemic) [compound 163]	–	–	–	–	–	–	–	–	H (more than 50% control value)	H (more than 50% control value)	H (more than 50% control value)	L (50% or less control value)	H (more than 50% control value)	H (more than 50% control value)	H (more than 50% control value)	H (more than 50% control value)	–
CCn1c(-c2ccc(O)cc2)c(CC(C)C)ccc1=O [compound 193]	L (50% or less control value)	H (more than 50% control value)	L (50% or less control value)	L (50% or less control value)	L (50% or less control value)	L (50% or less control value)	L (50% or less control value)	L (50% or less control value)	–	–	–	–	–	–	–	–	–
CCn1c(-c2ccc(C#N)cc2)c(C=O)cc(Cl)c1=O [compound 288]	L (50% or less control value)	H (more than 50% control value)	L (50% or less control value)	L (50% or less control value)	L (50% or less control value)	L (50% or less control value)	L (50% or less control value)	L (50% or less control value)	–	–	–	–	–	–	–	–	–
